One experiment deals with Aβ1-40. Briefly: Measurement of Aβ1-40 in culture medium of 7W WT APP751 CHO cells by ELISA.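 As to all read-outs here: 5 µM test compound but RI-coded compounds at 10 µM for 24 hours.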 The format is cell-based, Chinese hamster. The settings on record: for activity at 5 µM: Cricetulus griseus, 5 μM test compound, CHO cells stably transfected with human APP751, culture medium, ELISA, control DMSO; for Aβ1-40 (% of control): CHO cells that overexpress APP751, zero = below the detection limit of the assay. (In general: ELISA stands for enzyme-linked immunosorbent assay.)

The test system of another experiment is Aβ1-42. As to the kind of experiment: Measurement of Aβ1-42 in culture medium of 7W WT APP751 CHO cells by ELISA.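 As to Aβ1-42 (% of control): 5 µM test compound but RI-coded compounds at 10 µM for 24 hours.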 The settings on record: for activity at 5 µM: Cricetulus griseus, 5 μM test compound, CHO cells stably transfected with human APP751, culture medium, ELISA, control DMSO; for Aβ1-42 (% of control): CHO cells that overexpress APP751, zero = below the detection limit of the assay. It counts as cell-based, Chinese hamster.

Where [1] appears, read: Table 1, 0 = no detectable amount.
[2] abbreviates: Table 1, 0 = no detectable amount, read-out: Aβ1-42 (% of control).

Where two headings read alike, the source gives them in different places.

Turning to `CCCCCc1c2c(C)c(C(=O)OCC)cc-2cc2n1C(C)C(C)=C2C` (stereo not drawn) [ST020165, ethyl 3,6,7,8-tetramethyl-4-pentyl-6-hydropyrrolo[4,5-f]indolizine-2-carboxyla te, chloride], the activity at 5 µM with Aβ1-40 (Table 3) was 90.9%; in the experiment with Aβ1-42 (Table 3, read-out: Aβ-42 (% of control)) it was 23.1%.
As to `CCOC(=O)C1=C(C)NC2=C(C(=O)CCC2)C1c1cc(Br)c(C)s1` (stereo not drawn) [ST020910, ethyl 4-(4-bromo-5-methyl(2-thienyl))-2-methyl-5-oxo-1,4,6,7,8-pentahydroquinoline-3-carboxylate], the activity at 5 µM was found to be 47.3% in the experiment with Aβ1-40 (setting [1]) and 69.8% in the experiment on Aβ1-42 (setting [2]).
For `Cc1ccccc1N1C2=C(C(=O)CC(C)(C)C2)C(c2ccccc2)C2=C1c1ccccc1C2=O` (stereo not drawn) [ST024318, 3,3-dimethyl-5-(2-methylphenyl)-11-phenyl-2,3,4,5,11-pentahydroindeno[3,2-b]quinoline-1,10-dione] the same measures were 64.9% and 99.5%.
Consider `CCOC(=O)C1=C(N)n2c(s/c(=C\c3ccncc3)c2=O)=C(C#N)C1c1ccncc1` (stereo not drawn) [ST024405, ethyl 5-amino-8-cyano-3-oxo-7-(4-pyridyl)-2-(4-pyridylmethylene)-4,7-dihydro-1,3-thiazolidino[3,2-a]pyridine-6-carboxylate], for which the “Aβ1-40 (% of control)” value in the experiment on Aβ1-40 is listed as 59.66 % of control. The “Aβ1-42 (% of control)” value with Aβ1-42 was 77.41 % of control.
With `CCCCOC(=O)C1=C(C)NC2=C(C(=O)CC(C)(C)C2)C1c1ccc(Cl)cc1` (stereo not drawn) [ST024431, butyl 4-(4-chlorophenyl)-2,7,7-trimethyl-5-oxo-1,4,6,7,8-pentahydroquinoline-3-carboxylate], the activity at 5 µM in the experiment on Aβ1-40 (setting [1]) and with Aβ1-42 (setting [2]) was 0% in each case.
As for `CCOC(=O)C1=C(C)NC2=C(C(=O)CCC2)C1c1ccc(Cl)cc1` (stereo not drawn) [ST024440, ethyl 4-(4-chlorophenyl)-2-methyl-5-oxo-1,4,6,7,8-pentahydroquinoline-3-carboxylate], the figures for the activity at 5 µM with Aβ1-40 (setting [1]) and in the experiment on Aβ1-42 (setting [2]) were 63.1% and 97.7%, respectively.
For `CCOC(=O)C1=C(C)NC2=C(C(=O)CCC2)C1c1ccc(Cl)cc1Cl` (stereo not drawn) [ST024444, ethyl 4-(2,4-dichlorophenyl)-2-methyl-5-oxo-1,4,6,7,8-pentahydroquinoline-3-carboxylate], in that order: 37.4% and 16.6%.
For `CC1=C(C(=O)OC2CCCCCC2)C(c2cccc(Br)c2)C2=C(CC(C)(C)CC2=O)N1` (stereo not drawn) [ST024487, cycloheptyl 4-(3-bromophenyl)-2,7,7-trimethyl-5-oxo-1,4,6,7,8-pentahydroquinoline-3-carboxylate] the same measures were 5.07% and 3.77%.
As for `COc1ccc(C2C(C(=O)OC3CCCCCC3)=C(C)NC3=C2C(=O)CC(C)(C)C3)c(OC)c1OC` (stereo not drawn) [ST024504, cycloheptyl 2,7,7-trimethyl-5-oxo-4-(2,3,4-trimethoxyphenyl)-1,4,6,7,8-pentahydroquinoline-3-carboxylate], the values for the activity at 5 µM in the experiment with Aβ1-40 (setting [1]) and in the experiment on Aβ1-42 (setting [2]) were 0.415% and 0%, respectively.
In the case of `COC(=O)C1=C(C)N(C)C(C)=C(C(=O)OC)C1c1cccc(Oc2ccccc2)c1` [ST024552, methyl 5-(methoxycarbonyl)-1,2,6-trimethyl-4-(3-phenoxyphenyl)-1,4-dihydropyridine-3-carboxylate], the “Aβ1-40 (% of control)” value with Aβ1-40 is listed as 57.26 % of control. Further, in the experiment with Aβ1-42, the “Aβ1-42 (% of control)” value is recorded as 74.81 % of control.
For `COC(=O)C1=C(C)N(C)C(C)=C(C(=O)OC)C1c1ccccn1` [ST024568, methyl 5-(methoxycarbonyl)-1,2,6-trimethyl-4-(2-pyridyl)-1,4-dihydropyridine-3-carboxylate] the same measures were 67.61 % of control and 70.13 % of control.
As to `COC(=O)C1=C(C)NC2=C(C(=O)CC(c3ccc(OC)c(OC)c3)C2)C1c1cc(OC)c(OC)c(OC)c1` (stereo not drawn) [ST024574, methyl 7-(3,4-dimethoxyphenyl)-2-methyl-5-oxo-4-(3,4,5-trimethoxyphenyl)-1,4,6,7,8-pentahydroquinoline-3-carboxylate], the activity at 5 µM in the experiment with Aβ1-40 (setting [1]) stood at 65.3%; in the experiment with Aβ1-42 (setting [2]) it was 83.6%.
`COC(=O)C1=CN(Cc2ccc(F)cc2)C=C(C(=O)OC)C1c1ccc(Cl)cc1` [ST024836, methyl 4-(4-chlorophenyl)-1-[(4-fluorophenyl)methyl]-5-(methoxycarbonyl)-1,4-dihydropyridine-3-carboxylate]: in the experiment on Aβ1-40, the “Aβ1-40 (% of control)” value is 26.41 % of control. The “Aβ1-42 (% of control)” value in the experiment with Aβ1-42 is on record as 82.55 % of control.
Turning to `N#CC1=C(N)n2c(s/c(=C/c3cccc(Br)c3)c2=O)=C(C#N)C1c1cccc(Br)c1` (stereo not drawn) [ST024841, 5-amino-7-(3-bromophenyl)-2-[(3-bromophenyl)methylene]-3-oxo-4,7-dihydro-1,3-thiazolidino[3,2-a]pyridine-6,8-dicarbonitrile], the “Aβ1-40 (% of control)” value in the experiment on Aβ1-40 was 61.78 % of control. Moreover, the “Aβ1-42 (% of control)” value with Aβ1-42 is listed as 95.58 % of control.
Turning to `COc1ccc(/C=c2\sc3n(c2=O)C(N)=C(C#N)C(c2ccc(OC)cc2OC)C=3C#N)c(OC)c1` (stereo not drawn) [ST025017, 5-amino-7-(2,4-dimethoxyphenyl)-2-[(2,4-dimethoxyphenyl)methylene]-3-oxo-4,7-dihydro-1,3-thiazolidino[3,2-a]pyridine-6,8-dicarbonitrile], the “Aβ1-40 (% of control)” value in the experiment with Aβ1-40 was 64.54 % of control. Besides, the “Aβ1-42 (% of control)” value in the experiment with Aβ1-42 is on record as 72.39 % of control.
With `CCOc1ccc(/C=c2\sc3n(c2=O)C(N)=C(C#N)C(c2ccc(OCC)c(OC)c2)C=3C#N)cc1OC` (stereo not drawn) [ST025022, 5-amino-7-(4-ethoxy-3-methoxyphenyl)-2-[(4-ethoxy-3-methoxyphenyl)methylene]-3-oxo-4,7-dihydro-1,3-thiazolidino[3,2-a]pyridine-6,8-dicarbonitrile], the “Aβ1-40 (% of control)” value in the experiment on Aβ1-40 is recorded as 61.31 % of control. The “Aβ1-42 (% of control)” value in the experiment on Aβ1-42 is 76.11 % of control.
As to `CC(C)COc1cccc(/C=c2\sc3n(c2=O)C(N)=C(C#N)C(c2cccc(OCC(C)C)c2)C=3C#N)c1` (stereo not drawn) [ST025023, 5-amino-7-[3-(2-methylpropoxy)phenyl]-2-{[3-(2-methylpropoxy)phenyl]methylene}-3-oxo-4,7-dihydro-1,3-thiazolidino[3,2-a]pyridine-6,8-dicarbonitrile], the “Aβ1-40 (% of control)” value with Aβ1-40 is reported as 68.13 % of control. Moreover, in the experiment on Aβ1-42, the “Aβ1-42 (% of control)” value is 85.29 % of control.
As to `CC(C)Oc1ccc(/C=c2\sc3n(c2=O)C(N)=C(C#N)C(c2ccc(OC(C)C)cc2)C=3C#N)cc1` (stereo not drawn) [ST025026, 5-amino-7-[4-(methylethoxy)phenyl]-2-{[4-(methylethoxy)phenyl]methylene}-3-oxo-4,7-dihydro-1,3-thiazolidino[3,2-a]pyridine-6,8-dicarbonitrile], the “Aβ1-40 (% of control)” value in the experiment with Aβ1-40 is given as 26.82 % of control. The “Aβ1-42 (% of control)” value with Aβ1-42 is given as 0 % of control.
For `COc1cc(/C=c2\sc3n(c2=O)C(N)=C(C#N)C(c2ccc(OC(C)C)c(OC)c2)C=3C#N)ccc1OC(C)C` (stereo not drawn) [ST025029, 5-amino-7-[3-methoxy-4-(methylethoxy)phenyl]-2-{[3-methoxy-4-(methylethoxy)phenyl]methylene}-3-oxo-4,7-dihydro-1,3-thiazolidino[3,2-a]pyridine-6,8-dicarbonitrile], in that order: 65.7 % of control and 73.69 % of control.
As to `N#CC1=C(N)n2c(s/c(=C\c3cc(Br)ccc3O)c2=O)=C(C#N)C1c1cc(Br)ccc1O` (stereo not drawn) [ST025030, 5-amino-7-(5-bromo-2-hydroxyphenyl)-2-[(5-bromo-2-hydroxyphenyl)methylene]-3-oxo-4,7-dihydro-1,3-thiazolidino[3,2-a]pyridine-6,8-dicarbonitrile], the “Aβ1-40 (% of control)” value in the experiment on Aβ1-40 is given as 39.29 % of control. The “Aβ1-42 (% of control)” value with Aβ1-42 was 33.93 % of control.
Take `COc1cc(/C=c2\sc3n(c2=O)C(N)=C(C#N)C(c2cc(OC)c(OC)c(OC)c2)C=3C#N)cc(OC)c1OC` (stereo not drawn) [ST025031, 5-amino-3-oxo-7-(3,4,5-trimethoxyphenyl)-2-[(3,4,5-trimethoxyphenyl)methylene]-4,7-dihydro-1,3-thiazolidino[3,2-a]pyridine-6,8-dicarbonitrile]: in the experiment on Aβ1-40, the “Aβ1-40 (% of control)” value is 55.17 % of control. In the experiment with Aβ1-42, the “Aβ1-42 (% of control)” value is recorded as 77.59 % of control.
In the case of `COc1cc(/C=c2\sc3n(c2=O)C(N)=C(C#N)C(c2ccc(O)c(OC)c2)C=3C#N)ccc1O` (stereo not drawn) [ST025032, 5-amino-7-(4-hydroxy-3-methoxyphenyl)-2-[(4-hydroxy-3-methoxyphenyl)methylene]-3-oxo-4,7-dihydro-1,3-thiazolidino[3,2-a]pyridine-6,8-dicarbonitrile], in the experiment with Aβ1-40, the “Aβ1-40 (% of control)” value is reported as 27.77 % of control. In addition, in the experiment on Aβ1-42, the “Aβ1-42 (% of control)” value is on record as 32.98 % of control.
For `CCOc1cc(/C=c2\sc3n(c2=O)C(N)=C(C#N)C(c2ccc(O)c(OCC)c2)C=3C#N)ccc1O` (stereo not drawn) [ST025033, 5-amino-7-(3-ethoxy-4-hydroxyphenyl)-2-[(3-ethoxy-4-hydroxyphenyl)methylene]-3-oxo-4,7-dihydro-1,3-thiazolidino[3,2-a]pyridine-6,8-dicarbonitrile] the same measures were 53.66 % of control and 57.6 % of control.
With `N#CC1=C(N)n2c(s/c(=C\c3ccc(O)cc3)c2=O)=C(C#N)C1c1ccc(O)cc1` (stereo not drawn) [ST025034, 5-amino-7-(4-hydroxyphenyl)-2-[(4-hydroxyphenyl)methylene]-3-oxo-4,7-dihydro-1,3-thiazolidino[3,2-a]pyridine-6,8-dicarbonitrile], the “Aβ1-40 (% of control)” value in the experiment with Aβ1-40 is on record as 69.9 % of control. For the same compound, in the experiment with Aβ1-42, the “Aβ1-42 (% of control)” value is 85.11 % of control.
